Columns and labels:
[1] = test system: HIV-1 Gag (p24) in ACH-2 cells; experiment: Intracellular staining for HIV Gag in ACH-2 cells (flow cytometry); assay type: cell-based; conditions: for Intracellular Gag, percentage of positive cells: 16 h, 30 μM Cmpd 1 or Cmpd 2, 10 μM SAHA, 1 mM JQ1 or 10 ng/ml PMA, single experiment (Fig 4A)
Procedure: ACH-2 cells were treated as indicated and HIV-1 expression was monitored by intracellular staining for p24. Approximately, 1 × 10^6 cells were collected and washed in PBS before fixing by resuspending in 100 μl of BD Cytofix/Cytoperm (BD Biosciences, San Jose, CA) at 4°C for at least 20 min. Cells were then harvested by centrifugation and resuspended in 100 μl BD PermWash (50 mM NH4Cl, 5 mM EDTA, 0.1% saponin, 0.5% BSA, PBS and 1 mg/ml of anti-HIV-Gag PE (Clone KC57, Beckman Coulter, Brea CA). Cells were stained for 30 min, washed with the PermWash, and resuspended in FACS buffer (2 mM EDTA, 0.5% BSA, 1% paraformaldehyde in PBS). Cells were analyzed by flow cytometry using a FACSCalibur instrument (BD Biosciences). Flow cytometry was performed at the Boston University School of Medicine flow cytometry core.
Fig 4 Induction of HIV-1 expressing cells following treatment with latency reversing agents. ACH-2 cells were not treated or treated with a final concentration of 30 μM Cmpd 1 or Cmpd 2, 10 μM SAHA, 1 mM JQ1 or 10 ng/ml PMA for 16 h. Cells were stained using anti-HIV-Gag-PE and analyzed by flow cytometry. Numbers within the profiles represent the percentage of positive cells. These profiles are from a single experiment. B) Data from four independent experiments. Y-axis is mean of % p24 positive cells. * Cmpd 1 p-value […] compared to other treatments using a two-tailed t-test. TEXT PRINTED IN THE PICTURE: (A) Cmpd 1: Intracellular Gag: 65.6% | (A) Cmpd 2: Intracellular Gag: 33.9% | (A) SAHA: Intracellular Gag: 23.0% | (A) JQ1: Intracellular Gag: 16.7% | (A) PMA: Intracellular Gag: 94.2%

[2] = Protein binding, human plasma (ultrafiltration); assay type: in vitro ADME; conditions: human, plasma, pH 7.4
[3] = Microsome assay, mouse liver microsomes; assay type: in vitro ADME
Procedure: Human and mouse liver microsomes were obtained from XenoTech, LLC (Kansas City, KS). The reaction mixture was composed of liver microsomes (0.5 mg/mL), 20 mM Tris-HCl pH 7.4, 2.5 mM MgCl2, and an NADPH generating system (0.1 mM NADP, 1.2 mM glucose-6-phosphate and 0.3 units/ml glucose-6-phophate dehydrogenase). […] Test compounds were added to the microsome reaction and loss of parent molecule was monitored after 1 h by LC/MS/MS.

[4] = Protein binding, mouse plasma (ultrafiltration); assay type: in vitro ADME; conditions: mouse, plasma, pH 7.4
Procedure: Binding of test compound to plasma proteins was estimated by incubation of test compounds with mouse or human plasma. Human plasma was obtained from BioreclamationIVT (Westbury, NY). […] After a 15 min incubation at 37°C, triplicate aliquots of the incubation mixtures were transferred to a Millipore Multiscreen Ultracel-10 filter plate (10 kDa molecular mass cut off, EMD Millipore, Billerica, MA). The plate was centrifuged for 60 min at 3000 × g and 37°C. After centrifugation, aliquots of both the ultrafiltrates as well as the incubation mixtures prior to ultrafiltration were analyzed by LC-MS/MS to quantify the concentrations of test compound and reference compounds.

[5] = Cytotoxicity assay in stimulated PBMCs (ATP, CellTiter-Glo); assay type: cell-based; conditions: PBMCs stimulated with PHA and IL-2, ATP quantification
Procedure: SupT1 cells were plated at 100,000 per well in 96-well, white-walled plates with serial dilutions of test compound in a total volume of 100 μl RPMI-1640 medium containing 10% FBS and 0.5% DMSO. PBMCs were plated similarly at 50,000 cells/well and stimulated by addition of 40 μg/ml PHA and 80 ng/ml interleukin-2 (IL-2). Cells were incubated for 72 h at 37°C, 5% CO2. ATP was quantified using the CellTiter-Glo Luminescent Cell Viability Assay (Promega, Madison, WI) on a ViewLux microplate imager (Perkin Elmer, Waltham, MA). Percent cytotoxicity was determined relative to vehicle-only treated wells.

HIV-1 RNA in U1 cells = experiment: HIV-1 transcription in U1 cells (qRT-PCR); assay type: cell-based; conditions: 30 μM, 24 h, qRT-PCR (Fig 3)
Procedure: ACH-2 cells were maintained in RPMI-1640 medium without phenol red and with 10% FBS at 37°C in a 5% CO2 atmosphere. Cells were plated at 5000/well in 96-well round-bottom plated and test compounds were added in a final concentration of 0.5% DMSO, in duplicate. Cells were incubated for 24 h at 37°C, 5% CO2, then pelleted at 2000 × g for 5 min followed by washing in 0.1 ml PBS. RNA was isolated using Invitrogen PureLink 96 RNA Purification Kit with vacuum manifold per the manufacturer’s instructions, including DNase I treatment. HIV-1 transcripts were detected using TaqMan® RNA-to-CT™ 1-step kit (Applied Biosystems, Foster City, CA) and primers/probe specific to gag (SK38 forward: 5ʹ-[…]-3ʹ; SK39 reverse: 5ʹ-[…]-3ʹ; SK19 probe: 5ʹ-6FAM […] TAMRA-3ʹ) or tat (forward: 5ʹ-[…]-3ʹ; reverse: 5ʹ-[…]-3ʹ; probe: 5ʹ-6FAM […]-3ʹ). GAPDH RNA was monitored in all assays as an endogenous control for selectivity using a pre-developed TaqMan assay reagent (Applied Biosystems, Foster City, CA). RNA was quantified on an Applied Biosystems 7900HT. PCR replicates were performed for each biological replicate. Viral RNA expression was normalized to GAPDH RNA and data are expressed as the change from vehicle-only control wells.
Fig 3 Compounds 1 and 2 induce HIV-1 transcription in ACH-2 and U1. […] RNA was prepared and HIV expression was monitored by qRT-PCR. […]

| SMILES | Intracellular Gag, percentage of positive cells [1] [%] | Fold more ACH-2 cells induced than with SAHA or JQ1 ([1]; SAHA or JQ1 used at active concentrations) | ACH-2 cells in which HIV-1 expression was induced ([1]; text statement (Fig 4)) | fraction unbound at 15 min, 10 μM [2] | MLM stability (% loss of parent compound at 1 h) [3] [%] | fraction unbound at 15 min, 10 μM [4] | CC50 at 72 h [5] [µM] | Induction of HIV-1 transcription in U1 cells (in words) (HIV-1 RNA in U1 cells) |
| --- | --- | --- | --- | --- | --- | --- | --- | --- |
| Nc1ccc2[nH]c(-c3ccc(-c4nc5cc(N)ccc5o4)cc3)nc2c1 [Compound 1, 2-(4-(5-amino-1H-benzimidazol-2-yl)phenyl)benzoxazol-5-amine] | 65.6 | approximately 2 fold | over 70% | < 0.01 | 28 | < 0.03 | 18 ± 6.8 | induced HIV-1 transcription |
| Nc1ccc2[nH]c(-c3ccc(-c4nc5ccc(N)cc5o4)cc3)nc2c1 [Compound 2] | 33.9 |  |  | < 0.003 | 53 | < 0.025 | > 100 | induced HIV-1 transcription |

Source: PMC5489165, “Identification of benzazole compounds that induce HIV-1 transcription” (PLoS ONE, 2017)
